In data set [1] the test system is arterial pressure. The note with it: Hypertensive rats; after ingestion; Nakamura 1995; cited from earlier work.
Data set [2] concerns arterial pressure. The note with it: Normal rats; Nakamura 1995; cited from earlier work.
Data set [3] has as its system arterial pressure. The note with it: Hypertensive humans (36 subjects); 8 weeks of ingestion of 95 ml/d; Hata 1996; cited from earlier work.
For data set [4] the following is noted: In vivo animal; Migliore-Samour 1988; cited from earlier work.
For data set [5], the system named is Hansen YC-380 lactic ferment. The data set is described as follows: Fermentation of dairy mix containing DMV C12 hydrolysate (FIG. 3). Further details: species or system lactic bacteria. As to conditions: 1.5 g/l of DMV C12 hydrolysate, fermentation up to pH 4.7. An excerpt:
FIG. 3: Compared peptide profiles (LC-MS/MS chromatograms) of a dairy “mix” containing 1.5 g/l of DMV C12® hydrolysate, before (1) and after (2) fermentation up to pH 4.7 by the Hansen YC-380 lactic ferment. Virtually all of the hydrolysate peptides, including the bioactive C12 peptide (αS1 [23-34] fragment), disappeared following metabolism by the ferment strains.
In addition, in order to verify that this phenomenon was not specific to Lactium®, several combinations of ferments and other ingredients containing bioactive peptides were studied by implementing the same test (reconstituted milk and an ingredient to be tested in an amount of 1.5 g/l, fermented under standard conditions, fermentation stopped at pH 4.7, two repetitions).

Data set [6] concerns mouse peritoneal macrophages. The note with it: In vitro; Parker 1996; cited from earlier work.
For the next data set, the system named is Staphylococcus aureus. As to conditions: Mouse, sheep; IM injection; Lahov 1996; cited from earlier work.
The test system of data set [7] is experimental arterial thrombosis. The note with it: Rat and guinea pig with experimental arterial thrombosis; after IV injection; Drouet 1990; cited from earlier work.
The test system of the next data set is platelet aggregation. The note with it: In vitro; Jollès 1986; Raha 1988; cited from earlier work.
Another data set has as its system Lactobacillus I-2809. Description: Fermentation of Lactium milk by pure strain. The note with it: dairy mix containing 1.5 g/l of Lactium; pure strain I-2809; stopped at pH 4.7. On the procedure: (§1) After centrifugation, the supernatant constituted the representative sample of the peptide content of the fermented medium. • Said sample was injected into an Agilent 1100 HPLC system (Agilent Technologies France, 1 rue Galvani, 91745 Massy Cedex, France), equipped with a Waters Symetry® column suitable for peptide analysis (5 μm, 2.1×150 mm, WAT056975, Waters France, 5, rue Jacques Monod, 78280 Guyancourt) at a temperature of 40° C. and a flow rate of 0.25 ml/min. The peptides were eluted in a conventional way with an increasing gradient of solvent B (acetonitrile and 0.100% formic acid) in solvent A (water and 0.106% formic acid) for a period of 40 minutes to 2 hours as a function of the resolution desired. • Detection was carried out using a specific MS/MS detector, for example with an ionic trap device such as the Esquire 3000+(Bruker Daltonique, rue de l'Industrie, 67166 Wissembourg Cedex) set either for overall analysis of peptide content (MS-MS mode) or for the precise and specific quantification of a peptide from its characteristic fragments. For example, the αS1 [91-100] peptide was isolated from its mass (doubly charged ion of mass 634.5 Da) and quantified from the intensity of its characteristic daughter ions after fragmentation (ions for m/z=991.5 Da, 771.5 Da and 658.3 Da). In an even more precise manner, an internal standard comprised of the same doubly deuterated synthetic peptide (993.5 Da characteristic fragment) made it possible to take into account and to exclude potential interference related to the matrix.
(§2) In order to verify that this phenomenon was not specific to the two ferments used in paragraph 1.1) above, the principle industrial ferments, as well as various pure strains used in the composition of said ferments, were examined using the same test: milk reconstituted from powdered milk, to which Lactium® was added in an amount of 1.5 g/l, was fermented under standard conditions (optimal temperature for the ferment between 37° C. and 42° C., fermentation stopped at pH 4.7, two repetitions). Analysis of the level of bioactive αS1 [91-100] peptide was then carried out on the sample before and after fermentation.
(§3) In table 3 above, which reflects the consumption of the bioactive αS1 [91-100] peptide by various ferments and industrial strains during the fermentation of a dairy mix containing 1.5 g/l of Lactium®, the pure strains were identified by their CNCM (Pasteur Institute, Paris, France) number and deposit date.

The test system of a further data set is S. thermophilus I-1630. Description: Fermentation of Lactium milk by pure strain. As to conditions: dairy mix containing 1.5 g/l of Lactium; pure strain I-1630; stopped at pH 4.7. On the procedure:
as §1, §2, §3

The test system of a further data set is S. thermophilus I-1477. The data set is described as follows: Fermentation of Lactium milk by pure strain. As to conditions: dairy mix containing 1.5 g/l of Lactium; pure strain I-1477; stopped at pH 4.7. On the procedure: as §1, §2, §3
The next data set has as its system Lactobacillus I-1519. The data set is described as follows: Fermentation of Lactium milk by pure strain. The note with it: dairy mix containing 1.5 g/l of Lactium; pure strain I-1519; stopped at pH 4.7. On the procedure: as §1, §2, §3
For a further data set, the system named is Lactobacillus I-1632. Description: Fermentation of Lactium milk by pure strain. The note with it: dairy mix containing 1.5 g/l of Lactium; pure strain I-1632; stopped at pH 4.7. How it is done:
as §1, §2, §3

The test system of a further data set is Lactobacillus I-1968. The data set is described as follows: Fermentation of Lactium milk by pure strain. The note with it: dairy mix containing 1.5 g/l of Lactium; pure strain I-1968; stopped at pH 4.7. On the procedure: as §1, §2, §3
The test system of data set [8] is ferment consisting of a mixture of the strains I-2783, I-2774, I-2835 and I-1968, or YC-380. Description: Fermentation of dairy mix supplemented with Lactium; residual peptides by HPLC-MS/MS. Further details: species or system lactic bacteria. As to conditions: 1.5 g/l Lactium added before fermentation; four-strain ferment or YC-380; to pH 4.70. How it is done:
The medium was prepared by hydration of powdered skim milk to 120 g/l, supplemented with 1.5 g/l of Lactium® (corresponding to approximately 30 mg/l of the bioactive αS1 [91-100] peptide), then pasteurized at 95° C. for 8 minutes.
The lactic ferment was added in a proportion of 0.02% and fermentation was carried out at the optimal temperature for the selected ferment (37-42° C.) until a pH of 4.70 was reached.
After centrifugation, the supernatant constituted the representative sample of the peptide content of the fermented medium. • Said sample was injected into an Agilent 1100 HPLC system (Agilent Technologies France, 1 rue Galvani, 91745 Massy Cedex, France), equipped with a Waters Symetry® column suitable for peptide analysis (5 μm, 2.1×150 mm, WAT056975, Waters France, 5, rue Jacques Monod, 78280 Guyancourt) at a temperature of 40° C. and a flow rate of 0.25 ml/min. […] For example, the αS1 [91-100] peptide was isolated from its mass (doubly charged ion of mass 634.5 Da) and quantified from the intensity of its characteristic daughter ions after fragmentation (ions for m/z=991.5 Da, 771.5 Da and 658.3 Da). […]

A short description of data set [9]: Fermented product heat treated at 75° C for 1 minute, storage at 10° C (FIG. 5). The note with it: 75° C. for approximately 1 min; stored at 10° C. until UBD. On the procedure: Since the consumption of the bioactive peptide is caused by the metabolic activity of the ferments, it may be considered useful to reduce this phenomenon by destroying all or part of the microorganisms, for example using a suitable heat treatment (thermization or pasteurization).
FIG. 5: Curves illustrating the evolution of the residual content in bioactive αS1 [91-100] peptide added after fermentation in a fermented product which was then heat treated at 75° C. for 1 minute and then stored at 10° C. until the use-by date (UBD).

Data set [10] deals with ferment containing strains I-2783, I-2774, I-2835 and I-1968. The data set is described as follows: Peptide added after fermentation, storage at 10° C (FIG. 4). Further details: species or system lactic bacteria. How it is done:
FIG. 4: Curves illustrating the evolution of the residual content in bioactive αS1 [91-100] peptide in a final product comprised of 95% mass fermented by the ferment containing strains I-2783, I-2774, I-2835 and I-1968 and 5% flavored sugar syrup containing the αS1 [91-100] peptide, during storage at 10° C. The experiment was comprised of four independent tests: E1, E2, E3 and E4.
A logical alternative to the procedure studied above is to introduce the functional ingredient after fermentation (“delayed differentiation” procedure), for example with the syrup used to flavor the fermented mass.

Values joined by “and” are separate entries in the source; they are usually repeats but may differ in a detail not shown here. Equal values may be shown once. “Also recorded” adds a separate entry of the source. Read-outs that look alike come from different tables or passages of the source. Where no end group is shown, it is not given here.

On to II-Pro-Pro, for which the arterial pressure entry in the data set with arterial pressure [1] is recorded as “ingestion, decrease in arterial”; in the data set with arterial pressure [2] it was “Normal rats: no effect”; in the data set on arterial pressure [3] it was “decrease in arterial pressure”.

As to “Casein 63-68: Bovine β-casein, Casein 63-68 (PGPIPN; UniProt P02666 78-83, looked up, fragment)”, the protection in vivo result in data set [4] is “No protection in vivo”.

Turning to “C12 peptide: bioactive C12 peptide (αS1 [23-34] fragment) of DMV C12® hydrolysate (FFVAPFPEVFGK; UniProt P02662 38-49, looked up, fragment)”, in [5], the “hydrolysate peptides after fermentation (LC-MS/MS peptide profile)” value is “disappeared”.

On to “α-lactalbumin 51-53: α-lactalbumin 51-53 (GLF; UniProt P00711 70-72, looked up, fragment)”, for which the “sheep red blood cell phagocytosis by mouse peritoneal macrophages” value in [6] is listed as “Stimulation of sheep red blood”.

Regarding “RPKHPIKHQGLPQEVLNENLLRF [αS1B-casein fragment (1-23 N terminal)]”, the “efficacy against Staphylococcus aureus” value in the data set with Staphylococcus aureus is “Mouse, sheep: effective via IM injection”.

Consider “Human β-casein 54-59: Human β-casein 54-59 (VEPIPY; UniProt P05814 69-74, looked up, fragment)”, for which, in data set [6], the “sheep red blood cell phagocytosis by mouse peritoneal macrophages” value is given as “Stimulation of sheep red blood”.

On to “Human lactotransferrin tetrapeptide (39-42): Human lactotransferrin tetrapeptide (39-42) (RDSP; UniProt P02788 58-61, looked up, fragment)”, for which the antithrombotic activity result in data set [7] was “after IV injection, antithrombotic”. Moreover, the platelet aggregation entry with platelet aggregation is listed as “Inhibition of platelet”.

In the case of “Casein 191-193: Bovine β-casein, Casein 191-193 (LLY; UniProt P02666 206-208, looked up, fragment)”, the protection in vivo result in data set [4] is given as “No protection in vivo”.

As for “Peptide 106-116 of bovine κ-casein: Peptide 106-116 of bovine κ-casein (MAIPPKKNQDK; UniProt P02668 127-137, looked up, fragment)”, in the data set on platelet aggregation, the platelet aggregation entry is “Inhibition of platelet”.

“αS1 [91-100] peptide: peptide with anti-convulsive properties contained in milk protein hydrolysates, marketed by Ingredia under the name Lactium® (YLGYLEQLLR; UniProt P02662 106-115, looked up, fragment)”: the “% of αS1 [91-100] peptide remaining after fermentation” value with Lactobacillus I-2809 came out at 0.4%; in the data set on S. thermophilus I-1630, 0.3%; in the data set on S. thermophilus I-1477, 0.3%; in the data set with Lactobacillus I-1519, 0.1%; with Lactobacillus I-1632 it was 0.2%; in the data set with Lactobacillus I-1968, 1.6%. In data set [8], the “bioactive αS1 [91-100] peptide consumed after fermentation” value is given as “more than 95%”. For the same substance, the “stability of αS1 [91-100] peptide in heat-treated fermented product” value in [9] is reported as “possible to assure the stability; also recorded: possible to preserve”. The “initial quantity of active peptide left on the use-by date (UBD)” value in [10] (added cold (4° C.) after fermentation, 1.5 g of Lactium per kg of final product, storage at 10° C.) is reported as 30-40%. The “αS1 [91-100] peptide disappeared during storage of the final product” value in data set [10] (after 10 days, fresh products whose UBD is 28 days) was 35-50% and 35-55%.

As for Val-Pro-Pro, the arterial pressure result is given as “ingestion, decrease in arterial” in the data set with arterial pressure [1]; “Normal rats: no effect” in the data set with arterial pressure [2]; “decrease in arterial pressure” with arterial pressure [3].

Source of the values: patent publication US20070298144A1, “Method for Protecting Bioactive Food Ingredients Using Decoy Ingredients” (COMPAGNIE GERVAIS DANONE, priority 2004, published 2007).
